{"source": "PubChem BioAssay (NCI)", "test_in_all_cases": "NCI tumour cell line growth inhibition, 48 h", "key": {"SNB-19 CNS": {"system": "SNB-19 CNS"}, "OVCAR-4 ovarian": {"system": "OVCAR-4 ovarian"}, "SF-268 CNS": {"system": "SF-268 CNS"}, "MOLT-4 leukemia": {"system": "MOLT-4 leukemia"}, "SW-620 colon": {"system": "SW-620 colon"}, "OVCAR-8 ovarian": {"system": "OVCAR-8 ovarian"}, "U251 CNS": {"system": "U251 CNS"}, "HCT-116 colon": {"system": "HCT-116 colon"}, "UACC-257 melanoma": {"system": "UACC-257 melanoma"}, "SK-MEL-2 melanoma": {"system": "SK-MEL-2 melanoma"}}, "note": "Values joined by “and” are separate entries in the source; they are usually repeats but may differ in a detail not shown here. Equal entries are not always repeated.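 96-well plates; 48 h exposure; 5 concentrations. Endpoints by linear interpolation between flanking doses. Not reached: highest tested concentration assigned. Abbreviation: GI50, concentration required for 50% inhibition of growth. TGI: total growth inhibition.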", "data": [{"smiles": "Cn1cnc([N+](=O)[O-])c1Sc1nc2cc(Cl)c(F)cc2[nH]1", "values": [{"measurement": "TGI", "setting": "SNB-19 CNS", "value": "> 100", "unit": "µM"}, {"measurement": "TGI", "setting": "OVCAR-4 ovarian", "value": 21, "unit": "µM"}, {"measurement": "TGI", "setting": "SF-268 CNS", "value": 29.5, "unit": "µM"}, {"measurement": "TGI", "setting": "MOLT-4 leukemia", "value": 6.29, "unit": "µM"}, {"measurement": "TGI", "setting": "SW-620 colon", "value": 22.4, "unit": "µM"}, {"measurement": "TGI", "setting": "OVCAR-8 ovarian", "value": 23.2, "unit": "µM"}, {"measurement": "TGI", "setting": "U251 CNS", "value": 24, "unit": "µM"}, {"measurement": "TGI", "setting": "HCT-116 colon", "value": 20.6, "unit": "µM"}, {"measurement": "TGI", "setting": "UACC-257 melanoma", "value": 25.2, "unit": "µM"}]}, {"smiles": "Cc1c2cc[nH]c(C(F)(F)F)c2cc2c1nc1ccccc12", "values": [{"measurement": "TGI", "setting": "SNB-19 CNS", "value": "> 125", "unit": "µM"}, {"measurement": "TGI", "setting": "OVCAR-4 ovarian", "value": "> 125", "unit": "µM"}, {"measurement": "TGI", "setting": "SF-268 CNS", "value": "> 125", "unit": "µM"}, {"measurement": "TGI", "setting": "MOLT-4 leukemia", "value": "> 78.9", "unit": "µM"}, {"measurement": "TGI", "setting": "SW-620 colon", "value": "> 125", "unit": "µM"}, {"measurement": "TGI", "setting": "OVCAR-8 ovarian", "value": "> 125", "unit": "µM"}, {"measurement": "TGI", "setting": "SK-MEL-2 melanoma", "value": "> 125", "unit": "µM"}, {"measurement": "TGI", "setting": "U251 CNS", "value": "> 125", "unit": "µM"}, {"measurement": "TGI", "setting": "HCT-116 colon", "value": "> 125", "unit": "µM"}, {"measurement": "TGI", "setting": "UACC-257 melanoma", "value": "> 125", "unit": "µM"}]}, {"smiles": "O=C(Nc1cccc2ccccc12)Oc1ccccc1C1CCCCC1", "values": [{"measurement": "TGI", "setting": "SNB-19 CNS", "value": "> 100", "unit": "µM"}, {"measurement": "TGI", "setting": "OVCAR-4 ovarian", "value": 32.7, "unit": "µM"}, {"measurement": "TGI", "setting": "SF-268 CNS", "value": 98.9, "unit": "µM"}, {"measurement": "TGI", "setting": "MOLT-4 leukemia", "value": 55.3, "unit": "µM"}, {"measurement": "TGI", "setting": "SW-620 colon", "value": 40, "unit": "µM"}, {"measurement": "TGI", "setting": "OVCAR-8 ovarian", "value": 32.5, "unit": "µM"}, {"measurement": "TGI", "setting": "SK-MEL-2 melanoma", "value": 40.4, "unit": "µM"}, {"measurement": "TGI", "setting": "U251 CNS", "value": 26.7, "unit": "µM"}, {"measurement": "TGI", "setting": "HCT-116 colon", "value": 32.2, "unit": "µM"}, {"measurement": "TGI", "setting": "UACC-257 melanoma", "value": 29.8, "unit": "µM"}]}, {"smiles": "COC(=O)C(=O)C(C(=O)Nc1cccc(C)c1C)C1Sc2ccccc2NC1=O", "note": "(centres undefined)", "values": [{"measurement": "TGI", "setting": "SNB-19 CNS", "value": "> 25", "unit": "µM"}, {"measurement": "TGI", "setting": "OVCAR-4 ovarian", "value": "> 25", "unit": "µM"}, {"measurement": "TGI", "setting": "SF-268 CNS", "value": "> 25", "unit": "µM"}, {"measurement": "TGI", "setting": "MOLT-4 leukemia", "value": "> 25", "unit": "µM"}, {"measurement": "TGI", "setting": "SW-620 colon", "value": "> 25", "unit": "µM"}, {"measurement": "TGI", "setting": "OVCAR-8 ovarian", "value": "> 25", "unit": "µM"}, {"measurement": "TGI", "setting": "SK-MEL-2 melanoma", "value": 18.3, "unit": "µM"}, {"measurement": "TGI", "setting": "U251 CNS", "value": "> 25", "unit": "µM"}, {"measurement": "TGI", "setting": "HCT-116 colon", "value": "> 25", "unit": "µM"}, {"measurement": "TGI", "setting": "UACC-257 melanoma", "value": "> 25", "unit": "µM"}]}, {"smiles": "FC(F)(F)c1ccc(-c2nc(-c3nc4cc(Cl)c(Cl)cc4[nH]3)c3ccccn23)cc1", "values": [{"measurement": "GI50", "setting": "SNB-19 CNS", "value": 6.88, "unit": "µM"}, {"measurement": "TGI", "setting": "SNB-19 CNS", "value": "> 100", "unit": "µM"}, {"measurement": "GI50", "setting": "OVCAR-4 ovarian", "value": 1.87, "unit": "µM"}, {"measurement": "TGI", "setting": "OVCAR-4 ovarian", "value": 5.41, "unit": "µM"}, {"measurement": "GI50", "setting": "SF-268 CNS", "value": 4.19, "unit": "µM"}, {"measurement": "TGI", "setting": "SF-268 CNS", "value": "> 100", "unit": "µM"}, {"measurement": "GI50", "setting": "MOLT-4 leukemia", "value": "> 100", "unit": "µM"}, {"measurement": "TGI", "setting": "MOLT-4 leukemia", "value": "> 100", "unit": "µM"}, {"measurement": "GI50", "setting": "SW-620 colon", "value": "> 100", "unit": "µM"}, {"measurement": "TGI", "setting": "SW-620 colon", "value": "> 100", "unit": "µM"}, {"measurement": "GI50", "setting": "OVCAR-8 ovarian", "value": 6.61, "unit": "µM"}, {"measurement": "TGI", "setting": "OVCAR-8 ovarian", "value": "> 100", "unit": "µM"}, {"measurement": "GI50", "setting": "SK-MEL-2 melanoma", "value": 9.49, "unit": "µM"}, {"measurement": "TGI", "setting": "SK-MEL-2 melanoma", "value": 52.2, "unit": "µM"}, {"measurement": "GI50", "setting": "U251 CNS", "value": 3.13, "unit": "µM"}, {"measurement": "TGI", "setting": "U251 CNS", "value": "> 100", "unit": "µM"}, {"measurement": "GI50", "setting": "HCT-116 colon", "value": 2.92, "unit": "µM"}, {"measurement": "TGI", "setting": "HCT-116 colon", "value": "> 100", "unit": "µM"}, {"measurement": "GI50", "setting": "UACC-257 melanoma", "value": "> 100", "unit": "µM"}, {"measurement": "TGI", "setting": "UACC-257 melanoma", "value": "> 100", "unit": "µM"}]}, {"smiles": "COc1cc2c(cc1OCCCN1CCN(CCCOc3cc4c(cc3OC)C(=O)N3CCC[C@H]3C=N4)CC1)C=CC(C)(C)O2", "values": [{"measurement": "GI50", "setting": "SNB-19 CNS", "value": 2.22, "unit": "µM"}, {"measurement": "GI50", "setting": "OVCAR-4 ovarian", "value": 1.56, "unit": "µM"}, {"measurement": "TGI", "setting": "OVCAR-4 ovarian", "value": 3.53, "unit": "µM"}, {"measurement": "GI50", "setting": "MOLT-4 leukemia", "value": 0.249, "unit": "µM"}, {"measurement": "TGI", "setting": "MOLT-4 leukemia", "value": 0.765, "unit": "µM"}, {"measurement": "GI50", "setting": "SW-620 colon", "value": 0.634, "unit": "µM"}, {"measurement": "TGI", "setting": "SW-620 colon", "value": 1.93, "unit": "µM"}, {"measurement": "GI50", "setting": "OVCAR-8 ovarian", "value": 1.38, "unit": "µM"}, {"measurement": "TGI", "setting": "OVCAR-8 ovarian", "value": 3.85, "unit": "µM"}, {"measurement": "GI50", "setting": "SK-MEL-2 melanoma", "value": 1.58, "unit": "µM"}, {"measurement": "TGI", "setting": "SK-MEL-2 melanoma", "value": 2.97, "unit": "µM"}, {"measurement": "GI50", "setting": "UACC-257 melanoma", "value": 1.82, "unit": "µM"}, {"measurement": "TGI", "setting": "UACC-257 melanoma", "value": 3.52, "unit": "µM"}]}, {"smiles": "CCC1(O)CC(OC2CC(N(C)C)C(OC3CC4OC5CC(=O)C(C)OC5OC4C(C)O3)C(C)O2)c2c(cc3c(c2O)C(=O)c2c(O)ccc(O)c2C3=O)C1C(=O)OC", "note": "(centres undefined)", "values": [{"measurement": "TGI", "setting": "SNB-19 CNS", "value": "0.117 µM and 0.245 µM and 1.17 µM"}, {"measurement": "GI50", "setting": "SK-MEL-2 melanoma", "value": "0.00919 µM and 0.00439 µM and 0.00879 µM"}, {"measurement": "TGI", "setting": "SK-MEL-2 melanoma", "value": "0.0309 µM and 0.0149 µM and 0.0148 µM"}, {"measurement": "GI50", "setting": "U251 CNS", "value": "0.00486 µM and 0.00785 µM and < 0.0121 µM"}, {"measurement": "TGI", "setting": "HCT-116 colon", "value": "0.0238 µM and 0.126 µM and 0.0875 µM"}]}, {"smiles": "O=c1cnn(C/C=C\\CO)c(=O)[nH]1", "values": [{"measurement": "TGI", "setting": "SNB-19 CNS", "value": "> 100", "unit": "µM"}, {"measurement": "TGI", "setting": "SF-268 CNS", "value": "> 100", "unit": "µM"}, {"measurement": "TGI", "setting": "SW-620 colon", "value": "> 100", "unit": "µM"}, {"measurement": "TGI", "setting": "OVCAR-8 ovarian", "value": "> 100", "unit": "µM"}, {"measurement": "TGI", "setting": "SK-MEL-2 melanoma", "value": "> 100", "unit": "µM"}, {"measurement": "TGI", "setting": "U251 CNS", "value": "> 100", "unit": "µM"}, {"measurement": "TGI", "setting": "UACC-257 melanoma", "value": "> 100", "unit": "µM"}]}]}
